Values joined by “and” are separate entries in the source; they are usually repeats but may differ in a detail not shown here. Equal values may be shown once.

These results are taken from patent US20080167363A1, “Modulation of Neurogenesis By Melatoninergic Agents” (BrainCells, Inc, priority 2006, published 2008).

In assay [1] the target is mGluR3 (Homo sapiens, UniProt Q14832). Particulars: antagonist; cited from earlier work.
Assay [2] has as its system Group I or Group III receptors. Particulars: at sub-mM concentrations; cited from earlier work.
Assay [3] concerns the target mGluR2 (Homo sapiens, UniProt Q14416). The following applies: antagonist; cited from earlier work.
The test system of assay [4] is Human neural stem cells (hNSCs). The assay is described as follows: Neuronal differentiation of human neural stem cells (TUJ-1 staining). Type of assay: cell-based. The following applies: for maximum neuronal differentiation percent of positive control: basal media values subtracted. The source says:
Human neural stem cells (hNSCs) were isolated and grown in monolayer culture, plated, treated with varying concentrations of the melatonin agonist ramelteon and stained with TUJ-1 antibody, as described in U.S. Provisional Application No. 60/697,905 (incorporated by reference). Mitogen-free test media with a positive control for neuronal differentiation was used along with basal media without growth factors as a negative control. […] Provisional Application No. 60/697,905 (incorporated by reference). Mitogen-free test media with a positive control for neuronal differentiation was used along with basal media without growth factors as a negative control. Human neural stem cells (hNSCs) were isolated and grown in monolayer culture, plated, treated with varying concentrations of captopril and/or melatonin (test compounds), and stained with TUJ-1 antibody, as described in U.S. Provisional Application No. 60/697,905 (incorporated by reference). Mitogen-free test media with a positive control for neuronal differentiation was used along with basal media without growth factors as a negative control. Human neural stem cells (hNSCs) were isolated and grown in monolayer culture, plated, treated with varying concentrations of serotonin (5-HT) and/or melatonin (test compounds), and stained with TUJ-1 antibody, as described in U.S. Provisional Application No. 60/697,905 (incorporated by reference). Mitogen-free test media with a positive control for neuronal differentiation was used along with basal media without growth factors as a negative control. Human neural stem cells (hNSCs) were isolated and grown in monolayer culture, plated, treated with varying concentrations of buspirone in the presence or absence of the melatonin agonist melatonin, and stained with TUJ-1 antibody, as described in U.S. Provisional Application No. 60/697,905 (incorporated by reference). Mitogen-free test media with a positive control for neuronal differentiation was used along with basal media without growth factors as a negative control. Human neural stem cells (hNSCs) were isolated and grown in monolayer culture, plated, treated with varying concentrations of buspirone in the presence or absence of the melatonin agonist ramelteon, and stained with TUJ-1 antibody, as described in U.S. Provisional Application No. 60/697,905 (incorporated by reference). Mitogen-free test media with a positive control for neuronal differentiation was used along with basal media without growth factors as a negative control. Human neural stem cells (hNSCs) were isolated and grown in monolayer culture, plated, treated with varying concentrations of the melatonin […] and stained with TUJ-1 antibody, as described in U.S. Provisional Application No. 60/697,905 (incorporated by reference). Mitogen-free test media with a positive control for neuronal differentiation was used along with basal media without growth factors as a negative control. Human neural stem cells (hNSCs) were isolated and grown in monolayer culture, plated, treated with varying concentrations of the melatonin […] and stained with TUJ-1 antibody, as described in U.S. Provisional Application No. 60/697,905 (incorporated by reference). Mitogen-free test media with a positive control for neuronal differentiation was used along with basal media without growth factors as a negative control. Human neural stem cells (hNSCs) were isolated and grown in monolayer culture, plated, treated with varying concentrations of the melatonin agonist agomelatine and stained with TUJ-1 antibody, as described in U.S. Provisional Application No. 60/697,905 (incorporated by reference). Mitogen-free test media with a positive control for neuronal differentiation was used along with basal media without growth factors as a negative control. The presence of synergy was determined by use of a combination index (CI). […]

Assay [5] deals with KA, AMPA, and NMDA iGlu receptors. Particulars: cited from earlier work.
Assay [6] addresses human mGlu3 receptors (Homo sapiens, UniProt Q14832). Particulars: agonist, in vitro; cited from earlier work.
For assay [7], the target named is human mGlu2 receptors (Homo sapiens, UniProt Q14416). The following applies: agonist, in vitro; cited from earlier work.
The subject of assay [8] is Human neural stem cells (hNSCs). The assay can be described thus: Astrocyte differentiation of human neural stem cells (GFAP staining). The assay is classed as cell-based. The following applies: agent alone; for EC50: Homo sapiens, Neural stem cell, percent of astrocyte positive control, basal media subtracted. The source says: Human neural stem cells (hNSCs) were isolated and grown in monolayer culture, plated, treated with varying concentrations of buspirone in the presence or absence of the melatonin agonist melatonin, and stained with an antibody for the detection of the astrocyte marker GFAP, as described in U.S. Provisional Application No. 60/697,905 (incorporated by reference). Mitogen-free test media with a positive control for astrocyte differentiation was used along with basal media without growth factors as a negative control. Human neural stem cells (hNSCs) were isolated and grown in monolayer culture, plated, treated with varying concentrations of buspirone in the presence or absence of the melatonin agonist ramelteon, and stained with an antibody for the detection of the astrocyte marker GFAP, as described in U.S. Provisional Application No. 60/697,905 (incorporated by reference). Mitogen-free test media with a positive control for astrocyte differentiation was used along with basal media without growth factors as a negative control.

For assay [9], the system named is Male F344 rats. The assay can be described thus: Novelty suppressed feeding assay (latency to eat). Type of assay: in vivo, rat. Particulars: 0.5 mg/kg buspirone and/or 3.0 mg/kg melatonin, i.p., 1x per day for 21 days. On the procedure:
Male F344 rats were dosed 1× per day for 21-days with 0 (vehicle only) 0.5 mg/kg buspirone (n=12 per dose group, i.p.) 3.0 mg/kg melatonin (n=12 per dose group, i.p.) or the combination of the two drugs at the same doses. […] Results shown in this figure indicate the mean latency to approach and eat a food pellet within the novel environment. Data are presented as latency to eat expressed as percent baseline.
Male F344 rats were dosed 1× per day for 21-days with 0 (vehicle only), 0.5 mg/kg buspirone (n=12 per dose group, i.p.), 3.0 mg/kg melatonin (n=12 per dose group, i.p.), or the combination of the two drugs at the same doses. Twenty-four hours prior to behavioral testing, all food is removed from the home cage. At the time of testing a single pellet is placed in the center of a novel arena. Animals are placed in the corner of the arena and the latency (in time) to eat the pellet is recorded. […] Animals receive compound daily for 21 days and testing is performed on day 21. A decreased latency to eat the food pellet is indicative of both neurogenesis and antidepressant activity.

Assay [10] relates to Male F344 rats. The assay is described as follows: In vivo neurogenesis (BrdU positive cells in dentate gyrus). Also on record: species or system rat. Particulars: 0.5 mg/kg buspirone and/or 3.0 mg/kg melatonin, i.p., 1x per day for 28 days; compared to vehicle. The method, then: Male F344 rats were dosed 1× per day for 28-days with 0 (vehicle only), 0.5 mg/kg buspirone (n=12 per dose group, i.p.), 3.0 mg/kg melatonin (n=12 per dose group, ip) or the combination of the two drugs at the same doses. BrdU was administered once daily between days 9 and 14 (100 mg/kg/day, i.p., n=12 per dose group). […] Data are presented as percent change in BrdU positive cells per cubic mm dentate gyrus.
For the in vivo neurogenesis assays, male F344 rats were dosed 1× per day for 28-days with 0 (vehicle only), 0.5 mg/kg buspirone (n=12 per dose group, i.p.), 3.0 mg/kg melatonin (n=12 per dose group, ip) or the combination of the two drugs at the same doses. BrdU was administered once daily between days 9 and 14 (100 mg/kg/day, i.p., n=12 per dose group). […] Data are presented as percent change in BrdU positive cells per cubic mm dentate gyrus.

[11] abbreviates: Homo sapiens, Neural stem cell, agent alone, concentration response curve, percent of neuronal positive control, basal media subtracted, read-out: EC50, neuronal differentiation.

Chain of human mGlu2 receptors (Q14416 19-872): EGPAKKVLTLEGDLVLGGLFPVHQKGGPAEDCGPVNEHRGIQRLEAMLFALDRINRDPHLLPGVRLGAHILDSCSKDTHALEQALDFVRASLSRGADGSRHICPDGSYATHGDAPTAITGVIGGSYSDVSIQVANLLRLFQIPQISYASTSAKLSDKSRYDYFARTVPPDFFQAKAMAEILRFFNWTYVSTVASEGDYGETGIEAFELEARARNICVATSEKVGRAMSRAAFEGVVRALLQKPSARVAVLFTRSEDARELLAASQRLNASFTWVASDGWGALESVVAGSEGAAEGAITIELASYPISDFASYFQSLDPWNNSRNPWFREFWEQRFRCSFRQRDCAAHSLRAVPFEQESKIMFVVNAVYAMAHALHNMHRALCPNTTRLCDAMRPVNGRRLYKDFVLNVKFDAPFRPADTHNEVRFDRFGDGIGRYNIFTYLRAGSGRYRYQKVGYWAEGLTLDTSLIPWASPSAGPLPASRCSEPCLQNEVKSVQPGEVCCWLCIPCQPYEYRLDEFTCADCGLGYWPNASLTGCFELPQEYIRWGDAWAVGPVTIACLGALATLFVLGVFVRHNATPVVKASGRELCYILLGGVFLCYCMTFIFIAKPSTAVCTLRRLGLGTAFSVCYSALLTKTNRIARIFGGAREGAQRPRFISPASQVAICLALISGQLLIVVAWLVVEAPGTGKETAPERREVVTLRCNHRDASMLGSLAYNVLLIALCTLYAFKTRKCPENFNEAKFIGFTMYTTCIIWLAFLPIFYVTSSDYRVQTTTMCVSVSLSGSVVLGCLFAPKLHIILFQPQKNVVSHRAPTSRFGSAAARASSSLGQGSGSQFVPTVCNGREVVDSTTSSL
Chain of mGluR2 (Q14416 19-872): as above
Chain of mGluR3 (Q14832 23-879): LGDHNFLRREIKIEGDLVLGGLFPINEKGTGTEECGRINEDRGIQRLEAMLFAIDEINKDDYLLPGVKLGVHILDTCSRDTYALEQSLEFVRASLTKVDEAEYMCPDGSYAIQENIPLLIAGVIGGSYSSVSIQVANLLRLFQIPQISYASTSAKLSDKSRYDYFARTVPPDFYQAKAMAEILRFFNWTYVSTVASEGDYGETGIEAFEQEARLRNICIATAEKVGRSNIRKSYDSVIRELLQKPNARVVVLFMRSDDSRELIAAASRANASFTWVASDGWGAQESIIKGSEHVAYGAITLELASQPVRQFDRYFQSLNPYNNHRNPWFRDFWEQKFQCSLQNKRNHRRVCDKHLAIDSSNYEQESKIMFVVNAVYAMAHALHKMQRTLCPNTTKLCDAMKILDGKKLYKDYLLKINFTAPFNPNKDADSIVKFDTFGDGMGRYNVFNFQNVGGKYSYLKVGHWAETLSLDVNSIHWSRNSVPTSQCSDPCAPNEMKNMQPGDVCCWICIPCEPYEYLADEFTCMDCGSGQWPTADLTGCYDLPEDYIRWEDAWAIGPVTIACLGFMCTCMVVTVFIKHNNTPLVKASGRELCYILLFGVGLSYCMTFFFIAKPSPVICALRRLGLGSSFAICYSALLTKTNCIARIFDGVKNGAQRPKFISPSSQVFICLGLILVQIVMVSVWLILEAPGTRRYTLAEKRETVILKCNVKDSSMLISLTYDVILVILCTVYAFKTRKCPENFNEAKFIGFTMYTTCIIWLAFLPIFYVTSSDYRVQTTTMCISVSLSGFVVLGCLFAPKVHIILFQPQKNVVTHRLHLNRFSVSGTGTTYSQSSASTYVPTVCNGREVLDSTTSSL
Chain of human mGlu3 receptors (Q14832 23-879): as above

A word on the IC50: it is the midpoint of a concentration-inhibition curve. As for `NC1(C(=O)O)CCc2cc(P(=O)(O)O)ccc21` (racemic) [APICA, (RS)-1-amino-5-phosphonoindan-1-carboxylic acid], the IC50 in assay [1] and in [3] was about 30 µM each time. In addition, the “activity against Group I or Group III receptors” value in [2] was “no appreciable activity”.
What is called EC50 is the concentration needed to bring the measured effect to its halfway point. Consider `CCC(=O)NC1Cc2ccccc2C(c2ccccc2)C1` (centres unmarked) [4-P-PDOT], for which the “maximum neuronal differentiation percent of positive control” value (“maximum neuronal differentiation percent” below) in [4] (agent alone) came out at 51%. The EC50 in [4] (agent alone, extrapolated beyond highest tested concentration 31.6 μM, read-out: EC50, neuronal differentiation, estimated by extrapolation) was 33.7 µM.
As for `COc1ccc2cccc(CCNC(C)=O)c2c1` [Agomelatine], the EC50 in assay [4] (setting [11]) is 8.7 µM. Moreover, the “maximum neuronal differentiation percent” value in [4] (agent alone) was found to be 42%.
For `COC(=O)Nc1ccc2[nH]cc(CCNC(C)=O)c2c1` [GR 135,531, 5-Methoxy-carbonylamino-N-acetyl-tryptamine], the EC50 in [4] (Homo sapiens, Neural stem cell, read-out: EC50, neuronal differentiation) amounted to 0.24 µM. Also, in assay [4] (agent alone), the “maximum neuronal differentiation percent” value was determined as 59%.
For the compound `N[C@](CC1c2ccccc2Oc2ccccc21)(C(=O)O)[C@H]1C[C@@H]1C(=O)O` [LY341495, (2S)-2-amino-2-(1S,2S-2-carboxycycloprop-1-yl)-3-(xanth-9-yl) propanoic acid], the “activity against KA, AMPA, and NMDA iGlu receptors” value in assay [5] was “substantially inactive”.
As to `N[C@@]1(C(=O)O)CO[C@H]2[C@H](C(=O)O)[C@H]21` [LY379268, (−)-2-Oxa-4-aminobicyclohexane-4,6-dicarboxylic acid], the EC50 in assay [6] and in [7] was under 0.01 µM in each case.
In the case of `CC(=O)NCCc1c(Cc2ccccc2)[nH]c2ccccc12` [Luzindole], in [4] (setting [11]), the EC50 stood at 9.8 µM. In assay [4] (agent alone), the “maximum neuronal differentiation percent” value amounted to 86%.
With `CCC(=O)NCC[C@@H]1CCc2ccc3c(c21)CCO3` [Ramelteon], the concentration for a half-maximal effect (EC50) in assay [4] (setting [11]) was 8.1 µM. Moreover, in assay [4] (agent alone), the “maximum neuronal differentiation percent” value came to 45%. The effect on astrogenesis entry in assay [8] is given as “no astrogenesis”.
Turning to `O=C1CC2(CCCC2)CC(=O)N1CCCCN1CCN(c2ncccn2)CC1` [buspirone], in [9], the “latency to eat the food pellet (percent baseline)” value was “did not significantly reduce”. For the same compound, the EC50 is 4.7 µM in assay [4] (setting [11]) and 5.7 µM in [8]. Moreover, the “maximum neuronal differentiation percent” value in [4] (agent alone) came out at 62%. Also, in assay [8], the “maximum astrocyte differentiation relative to positive control” value is 60% and 59%. The “BrdU positive cells per cubic mm dentate gyrus (percent change)” value in assay [10] was “did not significantly change”.
For the compound `C[C@H](CS)C(=O)N1CCC[C@H]1C(=O)O` [captopril], the EC50 in assay [4] (setting [11]) was 3.8 µM.
Consider `COc1ccc2[nH]cc(CCNC(C)=O)c2c1` [melatonin], for which the “latency to eat the food pellet (percent baseline)” value in assay [9] is recorded as “did not significantly reduce”. The EC50 in assay [4] (setting [11]) is over 31.6 µM; in assay [4] (Homo sapiens, Neural stem cell, agent alone, extrapolated beyond highest tested concentration 31.6 μM, read-out: EC50, neuronal differentiation, estimated by extrapolation) it was about 49.7 µM; in assay [8], over 31.6 µM. Besides, the values for the effect on astrogenesis result in assay [8] and in assay [8] (listed as Melatonin) were “no astrogenesis” and “no effect”, respectively. In addition, the “BrdU positive cells per cubic mm dentate gyrus (percent change)” value in assay [10] is on record as “did not significantly change”.
Take `NCCc1c[nH]c2ccc(O)cc12` [serotonin, 5-hydroxytryptamine]: in assay [4] (setting [11]), the EC50 was determined as 7.4 µM.
